Data on 10 compounds can be found in PubChem BioAssay (NCI).

What all share (assay): NCI anticancer screen, dose series, 48 h
The test system of experiment [1] is CAKI-1 renal.
The test system of experiment [2] is HOP-92 NSCLC.
Experiment [3] concerns NCI/ADR-RES ovarian.
For experiment [4], the system named is PC-3 prostate.
Experiment [5] deals with RXF 393 renal.
Experiment [6] concerns SK-OV-3 ovarian.
Experiment [7] relates to T-47D breast.
Experiment [8] relates to UACC-62 melanoma.

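Compound exposure: 48 hours, 5 concentrations, 96-well plates. GI50: concentration for 50% inhibition of growth. TGI: total growth inhibition.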

Regarding `Cc1ccc(NC(=S)C#N)c(C)c1`, the TGI in experiment [1], in experiment [2], in experiment [3], in experiment [4], in experiment [5] and in experiment [6] was more than 100 µM in each case. Besides, the TGI in experiment [7] and in experiment [8] was more than 100 µM in each case.

`Cc1nc2sc(C(=O)Nc3ccccc3)c(N)c2cc1C(O)c1ccccc1` (configuration not stated): the GI50 in experiment [1] was 0.243 µM; in experiment [2] it was 3.56 µM; in experiment [3], 0.314 µM; in experiment [4], 0.427 µM; in experiment [5], 0.27 µM; in experiment [6], 0.523 µM. Also, the results for the GI50 in experiment [7] and in experiment [8] were 1.27 µM and 0.382 µM, respectively. Further, the TGI in experiment [1] is more than 100 µM; in experiment [2], 54.5 µM; in experiment [3], 28.8 µM; in experiment [4], more than 71 µM; in experiment [5] it was 1.88 µM; in experiment [6], 38.5 µM. The figures for the TGI in experiment [7] and in experiment [8] were more than 31.8 µM and more than 48.3 µM, respectively.

Consider `COc1c(B(O)O)cccc1-c1nc2ccc3[nH]ncc3c2c2c1CCCC2`, for which the GI50 in experiment [1] is 0.0171 µM; in experiment [3] it was 2.25 µM; in experiment [4] it was 2.41 µM; in experiment [5] it was 0.0225 µM; in experiment [6] it was 1.19 µM; in experiment [7], 3.36 µM. Moreover, in experiment [8], the GI50 is 2.71 µM. The TGI in experiment [1] turned out to be 0.252 µM; in experiment [2], 6.56 µM; in experiment [3] it was 15.2 µM; in experiment [4] it was 40.6 µM; in experiment [5], 1.25 µM; in experiment [6] it was 10.4 µM. For the same compound, the TGI is more than 37.7 µM in experiment [7] and 10.2 µM in experiment [8].

For the compound `COC(=O)c1c2c(c(C)[n+]([O-])c1C)C(=O)C(NCc1ccc(F)cc1)=CC2=O`, the GI50 is 2.06 µM in experiment [1]; 2.31 µM in experiment [2]; 1.68 µM in experiment [3]; 1.79 µM in experiment [4]; 1.56 µM in experiment [5]; 2.92 µM in experiment [6]. For the same compound, the GI50 is 1.72 µM in experiment [7] and 1.25 µM in experiment [8]. The TGI in experiment [1] is 6 µM; in experiment [2], 4.61 µM; in experiment [3] it was 5.53 µM; in experiment [4], more than 100 µM; in experiment [5], 3.51 µM; in experiment [6] it was 9.11 µM. Also, the TGI in experiment [7] was found to be 4.23 µM; in experiment [8] it was 2.65 µM.

Regarding `O=C(NNc1ccccc1)c1ccc(Cl)c(Cl)c1`, the TGI in experiment [1] is more than 59.5 µM; in experiment [2], more than 100 µM; in experiment [3], more than 100 µM; in experiment [4], more than 100 µM; in experiment [5], more than 84 µM; in experiment [6], more than 80.1 µM. Also, the TGI in experiment [7] and in experiment [8] was more than 100 µM each time.

For the compound `O=C(CSC(c1ccccc1)c1ccccc1)N/N=C/c1ccccc1Cl`, the GI50 is 37.7 µM in experiment [1]; 7.7 µM in experiment [2]; 13.6 µM in experiment [3]; 14.1 µM in experiment [4]; 10.2 µM in experiment [5]; more than 100 µM in experiment [6]. Moreover, the GI50 in experiment [7] was more than 100 µM; in experiment [8], 14.7 µM. For the same compound, the TGI in experiment [1] was more than 100 µM; in experiment [2] it was 37.2 µM; in experiment [3] it was more than 74.6 µM; in experiment [4] it was 70.1 µM; in experiment [5] it was 55.9 µM; in experiment [6] it was more than 100 µM. In addition, the results for the TGI in experiment [7] and in experiment [8] were more than 100 µM and more than 63.5 µM, respectively.

`CC1=NN(c2cccc(Cl)c2)C(=O)/C1=C\C=C\c1ccccc1`: the GI50 in experiment [1] was 1.89 µM; in experiment [2] it was 4.63 µM; in experiment [3] it was 3.4 µM; in experiment [4] it was 2.93 µM; in experiment [5], 2.12 µM; in experiment [6], 3.21 µM. Also, the GI50 in experiment [7] was 2.29 µM; in experiment [8] it was 1.76 µM. Moreover, the TGI is 4.49 µM in experiment [1]; 43 µM in experiment [2]; more than 100 µM in experiment [3]; more than 100 µM in experiment [4]; 3.92 µM in experiment [5]; 9.93 µM in experiment [6]. Also, the TGI is 39.5 µM in experiment [7] and 3.87 µM in experiment [8].

Turning to `C[C@H]1COCCN1c1nc(-c2cnc(N)cc2C(F)F)nc(N2CCOCC2)n1`, the GI50 was 0.102 µM in experiment [1]; 0.0197 µM in experiment [2]; 0.253 µM in experiment [3]; 0.0985 µM in experiment [4]; 0.129 µM in experiment [5]; 0.0614 µM in experiment [6]. Also, the GI50 in experiment [7] is 0.0269 µM; in experiment [8], 0.0794 µM. The TGI in experiment [2] is 0.197 µM; in experiment [3], more than 21.7 µM; in experiment [4], more than 100 µM; in experiment [5] it was 0.617 µM; in experiment [6], 0.412 µM; in experiment [7], 0.181 µM. The TGI in experiment [8] is 0.401 µM.

Turning to `CC1=CC(C)(C)Nc2ccc(Cc3ccc4c(c3)C(C)=CC(C)(C)N4)cc21`, the GI50 in experiment [1] is 13 µM; in experiment [2], 8.42 µM; in experiment [3], 18.1 µM; in experiment [4] it was 4.26 µM; in experiment [5] it was 22 µM; in experiment [6] it was 17.7 µM. For the same compound, the GI50 is 3.77 µM in experiment [7] and 6.95 µM in experiment [8]. Moreover, the TGI is more than 100 µM in experiment [1]; 65.6 µM in experiment [2]; more than 100 µM in experiment [3]; more than 100 µM in experiment [4]; 88.7 µM in experiment [5]; 97.1 µM in experiment [6]. In addition, the TGI was 35.2 µM in experiment [7] and 29 µM in experiment [8].

Take `Cn1cc(C2=C(c3cc[nH]c3)C(=O)NC2=O)c2ccccc21`: the GI50 was more than 25 µM in experiment [1]; more than 25 µM in experiment [2]; more than 25 µM in experiment [3]; more than 25 µM in experiment [4]; 18.3 µM in experiment [5]; more than 23.3 µM in experiment [6]. The GI50 is more than 17.5 µM in experiment [7] and more than 25 µM in experiment [8]. The TGI in experiment [1], in experiment [2], in experiment [3], in experiment [4], in experiment [5] and in experiment [6] was more than 25 µM each time. Besides, the TGI in experiment [7] and in experiment [8] was more than 25 µM in each case.
